Where a SMILES comes first, the peptide text is derived from it.
Test system: ERG 1-2 molecule
Assay: Cell differentiation marker ERG 1-2 in HaCat keratinocytes, immunofluorescence
Assay type: cell-based
Conditions: HaCat human keratinocytes, at 24 hours

quantity of ERG molecules present in the cells (intensity of fluorescence), cell differentiation: increases the quantity of ERG molecules
SMILES: N=C(N)NCCC[C@H](N)C(=O)NCC(=O)N[C@@H](CO)C(=O)O [Arg-Gly-Ser] (H-Arg-Gly-Ser-OH)
